{"source": "patent US20250082674A1", "about": "“METHODS OF TREATING COPPER METABOLISM-ASSOCIATED DISEASES OR DISORDERS” (priority 2021, published 2025)", "key": {"[1]": {"conditions": "human, in vivo", "source_text": "Pharmacokinetics: Blood samples for PK analysis were collected to measure plasma total molybdenum and plasma ultrafiltrate (PUF) molybdenum."}, "copper": {"test_system": "copper", "description": "Study 204 is registered with ClinicalTrials.gov, number NCT04573309, and is described in Example 1 of U.S. Provisional Patent Application No. 63/237,120, filed Aug. 25, 2021, and incorporated by reference herein. […] The participants remained on a Cu-controlled diet, and Cu and Mo balance were measured on all intake (i.e., investigational agent, food and fluids) and all output (urine and feces). The Cu and Mo concentration of each sample was determined by inductively coupled plasma mass spectrometry (ICP-MS). Copper and Mo content of all intake and output was calculated based on the volume or weight of intake and output and the concentration of representative samples.\nCollection periods for feces and urine varied in duration from 3 to 15 days to support assessment of both Cu and Mo balance before and at steady state for both 15 mg and 30 mg. Equilibration periods on Cu/Mo-controlled diets were a minimum of 48 hours. Copper balance was calculated as the mean daily Cu balance over each of the 4 collection periods. The interpretation of Cu balance was based on the criteria previously established when undertaking Cu balance studies with zinc treatment.\nThese participants had all intake (food and drink) and output (urine and feces) collected from Day-4 through Day-1 (baseline), from Day 1 through Day 8, and Day 25 through Day 39."}, "^64Cu in blood": {"test_system": "^64Cu in blood", "description": "15 minutes after intravenous administration of ^64Cu, a dynamic PET-MR scan was performed, followed by additional scans at 1, 2, 6, 20, 48, 54, and 68 hours. Venous blood samples were collected for quantitation of radioactivity at multiple time points."}, "[2]": {"conditions": "Study 204, Days 1-8 (Accumulation 15 mg/day)"}, "[3]": {"conditions": "Study 204, Days 25-28 (Steady State 15 mg/day)"}, "[4]": {"conditions": "Study 204, Days 31-35 (Accumulation 30 mg/day)"}, "[5]": {"conditions": "Study 204, Days 36-39 (Steady State 30 mg/day)"}}, "note": "Read-outs that look alike come from different tables or passages of the source."}
{"substance": "Bis-choline tetrathiomolybdate [BC-TTM]", "values": [{"measurement": "Daily Mean AUC(0-48 weeks) PUF Mo, Mean", "setting": "[1]", "value": 0.1, "unit": "mmol/L"}, {"measurement": "Daily Net Copper Balance, Change from Baseline, Median (IQR)", "setting": "copper; [2]", "value": "−0.4291 (0.2176) mg"}, {"measurement": "Daily Net Copper Balance, Value, Mean (SD)", "setting": "copper; [2]", "value": "0.7654 (0.3538) mg"}, {"measurement": "Daily Net Copper Balance, Value, Median (IQR)", "setting": "copper; [2]", "value": "0.6678 (0.6871) mg"}, {"measurement": "Increase from Baseline in Average Daily Fecal Copper Excretion, Mean (SD)", "setting": "copper; [2]", "value": "0.3278 (0.319) mg"}, {"measurement": "Increase from Baseline in Average Daily Urine Copper Excretion, Mean (SD)", "setting": "copper; [2]", "value": "−0.0108 (0.01119) mg"}, {"measurement": "Daily Net Copper Balance, Change from Baseline, Median (IQR)", "setting": "copper; [3]", "value": "−0.1459 (1.0434) mg"}, {"measurement": "Daily Net Copper Balance, Value, Mean (SD)", "setting": "copper; [3]", "value": "0.7638 (0.9138) mg"}, {"measurement": "Daily Net Copper Balance, Value, Median (IQR)", "setting": "copper; [3]", "value": "1.1434 (1.7052) mg"}, {"measurement": "Increase from Baseline in Average Daily Fecal Copper Excretion, Mean (SD)", "setting": "copper; [3]", "value": "0.4931 (0.4955) mg"}, {"measurement": "Increase from Baseline in Average Daily Urine Copper Excretion, Mean (SD)", "setting": "copper; [3]", "value": "0.1042 (0.08556) mg"}, {"measurement": "Daily Net Copper Balance, Change from Baseline, Median (IQR)", "setting": "copper; [4]", "value": "−0.3707 (0.1093) mg"}, {"measurement": "Daily Net Copper Balance, Value, Mean (SD)", "setting": "copper; [4]", "value": "0.8577 (0.3427) mg"}, {"measurement": "Daily Net Copper Balance, Value, Median (IQR)", "setting": "copper; [4]", "value": "0.8312 (0.6838) mg"}, {"measurement": "Increase from Baseline in Average Daily Fecal Copper Excretion, Mean (SD)", "setting": "copper; [4]", "value": "0.3879 (0.4193) mg"}, {"measurement": "Increase from Baseline in Average Daily Urine Copper Excretion, Mean (SD)", "setting": "copper; [4]", "value": "0.0744 (0.05427) mg"}, {"measurement": "Daily Net Copper Balance, Change from Baseline, Median (IQR)", "setting": "copper; [5]", "value": "−0.4225 (0.2275) mg"}, {"measurement": "Daily Net Copper Balance, Value, Mean (SD)", "setting": "copper; [5]", "value": "0.8582 (0.2565) mg"}, {"measurement": "Daily Net Copper Balance, Value, Median (IQR)", "setting": "copper; [5]", "value": "0.7986 (0.5024) mg"}, {"measurement": "Increase from Baseline in Average Daily Fecal Copper Excretion, Mean (SD)", "setting": "copper; [5]", "value": "0.0899 (0.2021) mg"}, {"measurement": "Increase from Baseline in Average Daily Urine Copper Excretion, Mean (SD)", "setting": "copper; [5]", "value": "0.1042 (0.04328) mg"}, {"measurement": "Daily Net Copper Balance, Change from Baseline, Mean (SD)", "setting": "copper; Study 204, Table 10, Days 1-8 (Accumulation 15 mg/day)", "value": "−0.4848 (0.119) mg"}, {"measurement": "Daily Net Copper Balance, Change from Baseline, Mean (SD)", "setting": "copper; Study 204, Table 10, Days 25-28 (Steady State 15 mg/day)", "value": "−0.4865 (0.5993) mg"}, {"measurement": "Daily Net Copper Balance, Change from Baseline, Mean (SD)", "setting": "copper; Study 204, Table 10, Days 31-35 (Accumulation 30 mg/day)", "value": "−0.3925 (0.05781) mg"}, {"measurement": "Daily Net Copper Balance, Change from Baseline, Mean (SD)", "setting": "copper; Study 204, Table 10, Days 36-39 (Steady State 30 mg/day)", "value": "−0.3921 (0.1168) mg"}, {"measurement": "Decrease from Baseline in Average Daily Net Copper Balance, Change from Baseline Mean (SD)", "setting": "copper; Study 204, Table 13, Days 1-8 (Accumulation 15 mg/day)", "value": "−0.4848 (0.119) mg"}, {"measurement": "Decrease from Baseline in Average Daily Net Copper Balance, Change from Baseline Mean (SD)", "setting": "copper; Study 204, Table 13, Days 1-39", "value": "−0.448 (0.1469) mg"}, {"measurement": "Decrease from Baseline in Average Daily Net Copper Balance, Change from Baseline Mean (SD)", "setting": "copper; Study 204, Table 13, Days 25-28 (Steady State 15 mg/day)", "value": "−0.6381 (0.7673) mg"}, {"measurement": "Decrease from Baseline in Average Daily Net Copper Balance, Change from Baseline Mean (SD)", "setting": "copper; Study 204, Table 13, Days 31-35 (Accumulation 30 mg/day)", "value": "−0.3925 (0.05781) mg"}, {"measurement": "Decrease from Baseline in Average Daily Net Copper Balance, Change from Baseline Mean (SD)", "setting": "copper; Study 204, Table 13, Days 36-39 (Steady State 30 mg/day)", "value": "−0.2765 (0.3138) mg"}, {"measurement": "Intravenously injected ^64Cu in the blood", "setting": "^64Cu in blood; Post (after BC-TTM treatment), 5 sec", "value": 0.05}, {"measurement": "Intravenously injected ^64Cu in the blood", "setting": "^64Cu in blood; Post (after BC-TTM treatment), 15 sec", "value": 1.02}, {"measurement": "Intravenously injected ^64Cu in the blood", "setting": "^64Cu in blood; Post (after BC-TTM treatment), 60 sec", "value": 4.16}, {"measurement": "Intravenously injected ^64Cu in the blood", "setting": "^64Cu in blood; Post (after BC-TTM treatment), 120 sec", "value": "3.47 (4.65)"}, {"measurement": "Intravenously injected ^64Cu in the blood", "setting": "^64Cu in blood; Post (after BC-TTM treatment), 200 sec", "value": 5.01}, {"measurement": "Intravenously injected ^64Cu in the blood", "setting": "^64Cu in blood; Post (after BC-TTM treatment), 300 sec", "value": 6.99}, {"measurement": "Intravenously injected ^64Cu in the blood", "setting": "^64Cu in blood; Post (after BC-TTM treatment), 600 sec", "value": 7.03}, {"measurement": "Intravenously injected ^64Cu in the blood", "setting": "^64Cu in blood; Post (after BC-TTM treatment), 1 hour", "value": 5.43}, {"measurement": "Intravenously injected ^64Cu in the blood", "setting": "^64Cu in blood; Post (after BC-TTM treatment), 2 hours", "value": 5.09}, {"measurement": "Intravenously injected ^64Cu in the blood", "setting": "^64Cu in blood; Post (after BC-TTM treatment), 6 hours", "value": 2.54}, {"measurement": "Intravenously injected ^64Cu in the blood", "setting": "^64Cu in blood; Post (after BC-TTM treatment), 20 hours", "value": "0.77 (0.41)"}, {"measurement": "Intravenously injected ^64Cu in the blood", "setting": "^64Cu in blood; Post (after BC-TTM treatment), 48 hours", "value": 0.51}, {"measurement": "Intravenously injected ^64Cu in the blood", "setting": "^64Cu in blood; Post (after BC-TTM treatment), 54 hours", "value": 0.42}, {"measurement": "Intravenously injected ^64Cu in the blood", "setting": "^64Cu in blood; Post (after BC-TTM treatment), 68 hours", "value": 0.42}, {"measurement": "Intravenously injected ^64Cu in the blood", "setting": "^64Cu in blood; Pre (before BC-TTM treatment), 5 sec", "value": 0.00}, {"measurement": "Intravenously injected ^64Cu in the blood", "setting": "^64Cu in blood; Pre (before BC-TTM treatment), 15 sec", "value": 0.00}, {"measurement": "Intravenously injected ^64Cu in the blood", "setting": "^64Cu in blood; Pre (before BC-TTM treatment), 60 sec", "value": 5.30}, {"measurement": "Intravenously injected ^64Cu in the blood", "setting": "^64Cu in blood; Pre (before BC-TTM treatment), 120 sec", "value": "5.15 (4.28)"}, {"measurement": "Intravenously injected ^64Cu in the blood", "setting": "^64Cu in blood; Pre (before BC-TTM treatment), 200 sec", "value": 5.13}, {"measurement": "Intravenously injected ^64Cu in the blood", "setting": "^64Cu in blood; Pre (before BC-TTM treatment), 300 sec", "value": 5.88}, {"measurement": "Intravenously injected ^64Cu in the blood", "setting": "^64Cu in blood; Pre (before BC-TTM treatment), 600 sec", "value": 4.35}, {"measurement": "Intravenously injected ^64Cu in the blood", "setting": "^64Cu in blood; Pre (before BC-TTM treatment), 1 hour", "value": 0.78}, {"measurement": "Intravenously injected ^64Cu in the blood", "setting": "^64Cu in blood; Pre (before BC-TTM treatment), 2 hours", "value": 0.64}, {"measurement": "Intravenously injected ^64Cu in the blood", "setting": "^64Cu in blood; Pre (before BC-TTM treatment), 6 hours", "value": 0.42}]}
